{
  "source": "patent US20230174472A1",
  "about": "“THERAPEUTIC USE OF PLEUROMUTILINS” (priority 2020, published 2023)",
  "key": {"in vitro [1]": {"assay": "in vitro", "conditions": "dog"}, "[2]": {"system": "influenza A/Puerto Rico/8/34 (H1N1)", "type": "in vivo, BALB/c mice"}, "polio virus": {"system": "polio virus", "conditions": "cited from earlier work"}, "[3]": {"system": "herpes simplex type 1 (HSV-1) virus", "conditions": "cited from earlier work"}, "[4]": {"system": "vesicular stomatitis virus (VSV)", "conditions": "cited from earlier work"}, "[5]": {"system": "influenza A virus strain (PR8)", "conditions": "cited from earlier work"}, "in vitro [6]": {"assay": "in vitro", "conditions": "human"}, "[7]": {"system": "alpha coronavirus 229E (HCoV-229E)", "assay": "inhibition of virus-induced CPE, CoV229E in MRC-5 cells (XTT)", "type": "cell-based", "protocol": "The antiviral compound Remdesivir served as positive control.\nLefamulin (as acetate) was evaluated using different treatment conditions of 4 h, 1 h or 0 h incubation prior to virus addition and addition 1 h after infection For this particular set of experiments, coronavirus was diluted 1:200 in assay medium and added at 100 μL/well to achieve approximately 90% cell killing in the untreated virus control wells (MOI of 0.001)."}, "[8]": {"system": "human rhinovirus strain HRV16 strain 11757", "assay": "inhibition of virus-induced CPE, human rhinovirus in H1-HeLa cells", "type": "cell-based", "conditions": "Human rhinovirus sp., 4 hour pretreatment", "protocol": "Cell viability determination as well as EC50 and TC50 calculations were performed as described in Examples 6 and 8."}, "in vitro [9]": {"assay": "in vitro", "conditions": "human", "remark": "listed apart in the source"}, "[10]": {"system": "mice challenged with lipopolysaccharide (LPS)", "assay": "modified LPS induced lung neutrophilia model, BALF cell counts 24 h post LPS (Example 4)"}, "[11]": {"assay": "cell viability of uninfected Huh7 cells", "conditions": "human, TC50, Example 13 (Zika assay)"}, "[12]": {"system": "respiratory syncytial virus (RSV B18537)", "assay": "inhibition of virus-induced CPE, RSV B18537 in HEp2 cells", "conditions": "Example 10; investigated strain of RSV B"}, "[13]": {"system": "respiratory syncytial virus (RSV ALONG)", "assay": "inhibition of virus-induced CPE, RSV ALONG in HEp2 cells", "conditions": "Example 10; investigated strain of RSV A"}, "[14]": {"system": "human respiratory syncytial virus (strain RSVA2)", "assay": "inhibition of virus-induced CPE, RSVA2 in HEp2 cells (XTT)"}, "HEp2 cells": {"system": "HEp2 cells", "assay": "cell viability of uninfected HEp2 cells (XTT)", "conditions": "Example 8"}, "MRC-5 cells": {"system": "MRC-5 cells", "conditions": "Example 6"}, "in vitro [15]": {"assay": "in vitro", "conditions": "human, TC50"}, "[16]": {"system": "human respiratory syncytial virus (strain RSVA2)", "conditions": "Example 8"}, "[17]": {"system": "lipopolysaccharide (LPS)-induced ALI", "conditions": "cited from earlier work"}, "[18]": {"system": "TNF-α, IL-6, IL-1β, GM-CSF, CXCL1, CXCL2, CCL2, MMP9 in lung homogenate", "assay": "LPS induced lung neutrophilia model, marker concentrations in lung homogenate (Example 2)"}, "[19]": {"system": "influenza A virus, porcine reproductive and respiratory syndrome virus (PRRSV) type 1 and 2", "conditions": "WO 2009/106839; compared to Tiamulin 0.1-10 μg/mL; cited from earlier work"}, "[20]": {"system": "mice challenged with lipopolysaccharide (LPS)", "assay": "LPS induced lung neutrophilia model, BALF cell counts (Example 2)", "conditions": "10, 30 and 100 mg/kg SC; 4 h post LPS"}, "[21]": {"conditions": "lower doses of 10 and 30 mg/kg SC"}, "[22]": {"conditions": "same doses (10, 30, 100 mg/kg SC)"}},
  "note": "Like-named read-outs stand apart in the source and are kept apart here.",
  "data": [
    {"molecule": "CCOC(=O)C1=C[C@@H](OC(CC)CC)[C@H](NC(C)=O)[C@@H](N)C1", "note": "[Oseltamivir, reference compound]", "values": [
      {"measurement": "CC50", "setting": "in vitro [1]", "result": "> 200", "unit": "µM"},
      {"measurement": "lung viral titres (TCID50 on MDCK cells)", "setting": "[2]; Lefamulin at both doses, Oseltamivir positive control, Day 3 and Day 6, vs vehicle treated control", "result": "reduced"},
      {"measurement": "bodyweight loss", "setting": "[2]; positive control treatment", "result": "reduction"},
      {"measurement": "clinical scores", "setting": "[2]; positive control treatment", "result": "reduction"}
    ]},
    {"molecule": "C=C[C@]1(C)C[C@@H](OC(=O)CO)[C@]2(C)[C@H](C)CC[C@]3(CCC(=O)[C@H]32)[C@@H](C)[C@@H]1O", "note": "[Pleuromutilin]", "values": [
      {"measurement": "antiviral activity for polio virus", "setting": "polio virus", "result": "did not show antiviral activity"},
      {"measurement": "concentration that conferred a 50% protection of the cytopathic effect induced by HSV-1 (CPE50)", "setting": "[3]", "result": 15, "unit": "µg/mL"},
      {"measurement": "EC50", "setting": "[3]; read-out: concentration that conferred a 50% protection of the cytopathic effect induced by HSV-1 (CPE50)", "result": 40, "unit": "µM"},
      {"measurement": "activity against vesicular stomatitis virus (VSV)", "setting": "[4]", "result": "activity"},
      {"measurement": "concentration with antiviral activity", "setting": "[5]", "result": 2, "unit": "mg/mL"}
    ]},
    {"molecule": "CCC(CC)COC(=O)[C@H](C)N[P@](=O)(OC[C@H]1O[C@@](C#N)(c2ccc3c(N)ncnn23)[C@H](O)[C@@H]1O)Oc1ccccc1", "note": "[Remdesivir, reference compound]", "values": [
      {"measurement": "CC50", "setting": "in vitro [6]", "result": "> 5", "unit": "µM"},
      {"measurement": "EC50", "setting": "[7]; Human coronavirus 229E, MRC5", "result": 0.11, "unit": "µM"}
    ]},
    {"molecule": "CCOC(=O)/C=C/[C@H](C[C@@H]1CCNC1=O)NC(=O)[C@@H](CC(=O)[C@@H](NC(=O)c1cc(C)on1)C(C)C)Cc1ccc(F)cc1", "note": "[Rupintrivir]", "values": [
      {"measurement": "EC50", "setting": "[8]", "result": 4.9, "unit": "nM"},
      {"measurement": "EC50", "setting": "[8]; MOI 0.0005, Lefamulin as acetate", "result": 4.9, "unit": "nM"},
      {"measurement": "CC50", "setting": "in vitro [9]", "result": "> 100", "unit": "nM"}
    ]},
    {"molecule": "C=C(CC(=O)[O-])C(=O)[O-].[Na+].[Na+]", "note": "[Sodium itaconate, reference compound]", "values": [
      {"measurement": "BALF cell counts", "setting": "[10]; 55 mg/kg single SC dose 30 min prior to IN LPS", "result": "some reduction"}
    ]},
    {"molecule": "CC(C)OC(=O)[C@H](C)N[P@](=O)(OC[C@H]1O[C@@H](n2ccc(=O)[nH]c2=O)[C@](C)(F)[C@@H]1O)Oc1ccccc1", "note": "[Sofosbuvir, reference compound]", "values": [
      {"measurement": "CC50 at 6 days", "setting": "[11]", "result": "> 10", "unit": "µM"}
    ]},
    {"molecule": "Cc1ccc(CCCO)c(NCc2ccc3nc(NCCCN4CCOCC4)n(Cc4nc(C)ccc4O)c3c2)c1", "note": "[TMC353121]", "values": [
      {"measurement": "EC50", "setting": "[12]", "result": 0.01, "unit": "nM"},
      {"measurement": "EC50", "setting": "[13]", "result": 0.01, "unit": "nM"},
      {"measurement": "EC50", "setting": "[14]; Example 8, HEp2 cells, 4 h incubation prior to virus, MOI 0.001, 6 days post-infection, Lefamulin as acetate, Tiamulin as fumarate", "result": 0.6, "unit": "nM"},
      {"measurement": "EC50", "setting": "[14]; Example 9, MOI 0.0004", "result": 0.04, "unit": "nM"},
      {"measurement": "EC50", "setting": "[14]; Example 9, MOI 0.0008", "result": 0.3, "unit": "nM"},
      {"measurement": "EC50", "setting": "[14]; Example 9, MOI 0.001", "result": 0.2, "unit": "nM"},
      {"measurement": "EC50", "setting": "[14]; Example 9, MOI 0.003", "result": 0.2, "unit": "nM"}
    ]},
    {"molecule": "C=C[C@]1(C)C[C@@H](OC(=O)CSCCN(CC)CC)[C@]2(C)[C@H](C)CC[C@]3(CCC(=O)[C@H]32)[C@@H](C)[C@@H]1O", "note": "[Tiamulin, reference compound]", "values": [
      {"measurement": "viability", "setting": "HEp2 cells; 10 μM", "result": 84, "unit": "%"},
      {"measurement": "viability", "setting": "HEp2 cells; 50 μM", "result": 70.0, "unit": "%"},
      {"measurement": "cytotoxic effect on the viability of the cell control", "setting": "MRC-5 cells; 10 μM", "result": "no cytotoxic effect"},
      {"measurement": "cytotoxic effect on the viability of the cell control", "setting": "MRC-5 cells; 50 μM", "result": "cytotoxic effect"},
      {"measurement": "CC50 at 6 days", "setting": "in vitro [15]", "result": 67.9, "unit": "µM"},
      {"measurement": "reduction of viral CPE", "setting": "[16]; 10 μM", "result": 16.76, "unit": "%"},
      {"measurement": "reduction of viral CPE", "setting": "[16]; 50 μM", "result": 43.28, "unit": "%"},
      {"measurement": "EC50", "setting": "[14]; human respiratory syncytial virus, HEp-2, Example 8, HEp2 cells, 4 h incubation prior to virus, MOI 0.001, 6 days post-infection, Lefamulin as acetate, Tiamulin as fumarate", "result": "> 67900", "unit": "nM"},
      {"measurement": "CC50 at 6 days", "setting": "in vitro [6]", "result": 62.9, "unit": "µM"},
      {"measurement": "reduction of viral CPE", "setting": "[7]; 10 µM", "result": 10.53, "unit": "%"},
      {"measurement": "reduction of viral CPE", "setting": "[7]; 50 μM", "result": 81.68, "unit": "%"},
      {"measurement": "EC50", "setting": "[7]; Example 6, MRC-5 cells, 4 h incubation prior to virus, MOI 0.001, 6 days post-infection, Lefamulin as acetate, Tiamulin as fumarate, read-out: EC50", "result": 24.4, "unit": "µM"}
    ]},
    {"molecule": "C=C[C@]1(C)C[C@@H](OC(=O)CSC(C)(C)CNC(=O)[C@H](N)C(C)C)[C@]2(C)[C@H](C)CC[C@]3(CCC(=O)[C@H]32)[C@@H](C)[C@@H]1O", "note": "[Valnemulin, reference compound]", "values": [
      {"measurement": "concentration of pro-inflammatory cytokines TNF-α, IL-6 and IL-1ß in bronchoalveolar lavage fluid", "setting": "[17]; in vivo", "result": "attenuate"},
      {"measurement": "pulmonary wet-to-dry (W/D) ratio in the lung", "setting": "[17]; pre-administration", "result": "significantly reduced"},
      {"measurement": "reduction of MMP9 levels in lung homogenate", "setting": "[18]; 100 mg/kg SC", "result": 50, "unit": "%"},
      {"measurement": "GM-CSF in lung homogenate", "setting": "[18]; all doses tested (10, 30, 100 mg/kg SC)", "result": "showed a reduction of GM-CSF levels, but was less active than Lefamulin"},
      {"measurement": "LPS-induced CCL2 increase in the lung homogenate", "setting": "[18]; all investigated doses (10, 30, 100 mg/kg SC), Valnemulin particularly at 10 and 30 mg/kg", "result": "less active"},
      {"measurement": "effect on CXCL1 compared to Lefamulin", "setting": "[18]; [21]", "result": "less effect"},
      {"measurement": "effect on CXCL2 compared to Lefamulin", "setting": "[18]; [21]", "result": "less effect"},
      {"measurement": "IL-6 level in lung homogenate, compared with Lefamulin", "setting": "[18]; [22]", "result": "less active"},
      {"measurement": "TNF-α level in lung homogenate, compared with Lefamulin", "setting": "[18]; [22]", "result": "less active"},
      {"measurement": "antiviral activity", "setting": "[19]", "result": "did not exhibit antiviral activity"},
      {"measurement": "lymphocyte cell counts in BALF", "setting": "[20]", "result": "not significantly affected"},
      {"measurement": "macrophage cell counts in BALF", "setting": "[20]", "result": "not significantly affected"}
    ]},
    {"molecule": "Lefamulin acetate", "values": [
      {"measurement": "cell count in BALF", "setting": "[10]; 70 mg/kg single SC dose 30 min prior to IN LPS", "result": "reduction"}
    ]}
  ]
}
